The structures appear in SMILES notation. Counter-ions that a name gives are not always drawn.

The target in one assay is T1, human A3AR (Homo sapiens, UniProt P0DMS8).
T1 construct: expressed in transfected cells
T1 sequence (P0DMS8 1-318): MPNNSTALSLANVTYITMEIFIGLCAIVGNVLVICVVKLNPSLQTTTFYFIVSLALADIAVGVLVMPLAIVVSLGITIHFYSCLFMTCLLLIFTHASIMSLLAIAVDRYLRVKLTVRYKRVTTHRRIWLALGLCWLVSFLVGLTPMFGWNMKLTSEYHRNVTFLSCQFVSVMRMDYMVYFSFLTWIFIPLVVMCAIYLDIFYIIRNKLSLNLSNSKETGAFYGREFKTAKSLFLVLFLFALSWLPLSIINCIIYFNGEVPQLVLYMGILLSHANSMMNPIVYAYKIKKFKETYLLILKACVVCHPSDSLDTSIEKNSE
The experiment in a line: LOPAC library primary screen: single concentration (10 μM) inhibition of 25 nM CA200645 binding, PHERAstar FS.
Conditions: not given
`CCCCCCCCCCC/C=C\C(C)(C)/C=C\CCCC(=O)O` [7,7-Dimethyl-(5Z,8Z)-eicosadienoic acid]: the “% 25 nM CA200645 binding” value is listed as 100.3 ± 12.4%.

Consider `O.O=c1cc(-c2ccccc2)oc2c(O)c(O)ccc12` [7,8-Dihydroxyflavone hydrate], for which the “% 25 nM CA200645 binding” value is 68.2 ± 13.0%.

`O=[N+]([O-])c1cccc2cn[nH]c12` [7-Nitroindazole]: the “% 25 nM CA200645 binding” value turned out to be 126.0 ± 15.1%. Still for that read-out and setting: for `Cn1c(=O)c2c(nc(C=Cc3cccc(Cl)c3)n2C)n(C)c1=O` [8-(3-Chlorostyryl)caffeine] the value was 79.6 ± 7.9%. Still for that read-out and setting: in the case of `Cn1c(=O)c2[nH]c(-c3ccc(S(=O)(=O)O)cc3)nc2n(C)c1=O` [8-(p-Sulfophenyl)theophylline] it was 97.2 ± 13.7%; in that of `Nc1nc2c(nc(Br)n2[C@@H]2O[C@@H]3COP(=O)([O-])O[C@H]3[C@H]2O)c(=O)[nH]1.[Na+]` [8-Bromo-cGMP sodium], 102.4 ± 7.4%. For the compound `Cn1c(=O)c2[nH]c(C3CCCC3)nc2n(C)c1=O` [8-Cyclopentyl-1,3-dimethylxanthine], the “% 25 nM CA200645 binding” value was determined as 96.1 ± 9.6%. On the same count and under the same terms, in the case of `Nc1ncnc2c1ncn2C1CCCC1` [9-cyclopentyladenine] it was 102.2 ± 2.7%; in that of `CC1=C(/C=C/C(C)=C/C=C/C(C)=C\C(=O)O)C(C)(C)CCC1` [13-cis-retinoic acid], 85.2 ± 2.9%; in that of `CC(C)C[C@H]1C(=O)N2CCC[C@H]2[C@]2(O)O[C@](NC(=O)[C@@H]3C=C4c5cccc6[nH]c(Br)c(c56)C[C@H]4N(C)C3)(C(C)C)C(=O)N12.CS(=O)(=O)O` [(+)-Bromocriptine methanesulfonate], 60.6 ± 9.2%. For the compound `CN(C)CC[C@@H](c1ccc(Br)cc1)c1ccccn1` [(+)-Brompheniramine maleate], the “% 25 nM CA200645 binding” value worked out at 97.2 ± 7.4%. On to `CC(C)(C)[C@]1(O)CCN2C[C@H]3c4ccccc4CCc4cccc(c43)[C@@H]2C1` [(+)-Butaclamol hydrochloride], for which the “% 25 nM CA200645 binding” value was found to be 98.6 ± 1.9%.

As for `CN(C)CC[C@@H](c1ccc(Cl)cc1)c1ccccn1` [(+)-Chlorpheniramine maleate], the “% 25 nM CA200645 binding” value amounted to 96.8 ± 6.2%. On the same count and under the same terms, for `N[C@@H](Cn1oc(=O)[nH]c1=O)C(=O)O` [(+)-Quisqualic acid] the value was 106.4 ± 10.3%; for `C[N+]1(C)CCc2cc3c(cc2[C@H]1[C@@H]1OC(=O)c2c1ccc1c2OCO1)OCO3.[Br-]` [(-)-Bicuculline methbromide, 1(S), 9(R)], 67.4 ± 5.9%. Still for that read-out and setting: for `CN1C(=O)CC[C@H]1c1cccnc1` [(-)-Cotinine] the value was 106.5 ± 4.3%; for `CNC[C@H](O)c1ccc(O)c(O)c1` [(-)-Epinephrine bitartrate], 100.5 ± 6.3%; for `CN1CC[C@@]2(C)c3cc(O)ccc3N(C)[C@@H]12.O=C(O)/C=C/C(=O)O` [(-)-Eseroline fumarate], 105.8 ± 9.3%. The same measure, in the same setting: for `COc1ccc2cc([C@H](C)C(=O)[O-])ccc2c1.[Na+]` [(-)-Naproxen sodium] the value was 97.8 ± 4.0%.

As for `C=C(C)[C@H]1CC=C(C(=O)O)CC1` [(-)-Perillic acid], the “% 25 nM CA200645 binding” value amounted to 115.8 ± 16.6%. Take `CNC(=O)Oc1ccc2c(c1)[C@]1(C)CCN(C)[C@@H]1N2C` [(-)-Physostigmine]: the “% 25 nM CA200645 binding” value stood at 99.3 ± 6.1%. The same measure, in the same setting: in the case of `C[N+]1(C)[C@@H]2C[C@@H](OC(=O)[C@H](CO)c3ccccc3)C[C@H]1[C@@H]1O[C@@H]12` [(-)-Scopolamine methyl bromide] it was 88.5 ± 14.0%. For `CCN1CCC[C@H]1CNC(=O)c1cc(S(N)(=O)=O)ccc1OC` [(-)-Sulpiride], the “% 25 nM CA200645 binding” value is listed as 103.0 ± 8.9%. Still for that read-out and setting: for `Cl.c1ccc([C@H]2CN3CCSC3=N2)cc1` [(-)-Tetramisole hydrochloride] the value was 112.9 ± 6.8%.

Regarding `NC/C=C/C(=O)O` [(E)-4-amino-2-butenoic acid], the “% 25 nM CA200645 binding” value was determined as 101.5 ± 12.6%.

Regarding `N[C@H](C(=O)O)c1cc(O)cc(O)c1` [(S)-3,5-Dihydroxyphenylglycine], the “% 25 nM CA200645 binding” value is reported as 102.7 ± 20.4%. Same read-out and setting: in the case of `CC[C@@]1(O)C(=O)OCc2c1cc1n(c2=O)Cc2cc3ccccc3nc2-1` [(S)-(+)-Camptothecin] it was 99.7 ± 12.1%. Same read-out and setting: in the case of `C[C@](N)(CCP(=O)(O)O)C(=O)O.Cl` [(S)-MAP4 hydrochloride] it was 89.0 ± 15.4%.

`CC(C)NC[C@H](O)COc1cccc2ccccc12` [(S)-Propranolol hydrochloride]: the “% 25 nM CA200645 binding” value came out at 100.2 ± 8.9%. Same read-out and setting: in the case of `Cl.NCCNS(=O)(=O)c1cccc2c(Cl)cccc12` [A3 hydrochloride] it was 95.5 ± 8.6%; in that of `Cl.NC[C@@H]1O[C@H](c2ccccc2)Cc2c1ccc(O)c2O` [A-68930 hydrochloride], 95.6 ± 9.3%.

Consider `Cl.NC[C@@H]1O[C@H](C23CC4CC(CC(C4)C2)C3)Cc2c1ccc(O)c2O` [A-77636 hydrochloride], for which the “% 25 nM CA200645 binding” value was determined as 87.3 ± 8.5%. `CCS(=O)(=O)Nc1cccc(C(=C2CCCCC2)c2cnc[nH]2)c1` [A-315456]: the “% 25 nM CA200645 binding” value is recorded as 92.6 ± 5.2%. The same measure, in the same setting: in the case of `CNC(=O)[C@H]1O[C@@H](n2cnc3c(NCc4ccc(N)cc4)ncnc32)[C@H](O)[C@@H]1O` [AB-MECA, reference compound] it was 48.5 ± 9.1%; in that of `Cc1cc([C@@H]2CCCN2C)on1.Cl` [ABT-418 hydrochloride], 101.9 ± 4.7%. The same measure, in the same setting: in the case of `CCCCCCCCc1ccc(-c2ccc(C(=O)O)cc2)cc1` [AC-55649] it was 83.6 ± 13.2%; in that of `CC[n+]1c(/C=C/C=C2/N(C)c3ccccc3C2(C)C)sc2ccccc21.[I-]` [AC-93253 iodide], 89.8 ± 11.3%. Still for that read-out and setting: for `COc1ccc(NC=O)c(C(=O)CCNC(C)=O)c1` [AFMK] the value was 100.0 ± 2.7%; for `N#C/C(=C\c1ccc(-c2cc(Cl)ccc2Cl)o1)C(=O)Nc1cccc2ncccc12` [AGK2], 35.8 ± 5.6%; for `NC1(C(=O)O)CCc2cc(C(=O)O)ccc21` (centres unmarked) [AIDA], 99.4 ± 5.4%.

Turning to `O=C(O)CCC/C=C\C[C@@H]1[C@@H](/C=C/[C@H](O)C2Cc3ccccc3C2)[C@@H](F)C[C@@H]1O` [AL-8810], the “% 25 nM CA200645 binding” value was found to be 75.0 ± 17.3%. The same measure, in the same setting: in the case of `CC(C)(C)c1ccc(/C=C/C(=O)Nc2ccc3c(c2)OCCO3)cc1` [AMG 9810] it was 59.0 ± 6.4%; in that of `CCN(CC)c1ncnc2c1ncn2[C@@H]1O[C@H](COP(=O)([O-])OP(=O)([O-])C(Br)(Br)P(=O)([O-])O)[C@@H](O)[C@H]1O.[Na+].[Na+].[Na+]` [ARL 67156 trisodium salt], 103.2 ± 16.2%. On the same count and under the same terms, in the case of `O=C1NC(=O)/C(=C\c2ccc3nccnc3c2)S1` [AS605240] it was 83.4 ± 13.4%; in that of `O=C1NC(=O)/C(=C/c2ccc3c(c2)OC(F)(F)O3)S1` [AS 604850], 58.3 ± 11.4%; in that of `O=C1NC(=O)/C(=C/c2ccc(-c3ccc(F)cc3O)o2)S1` [AS-252424], 45.8 ± 20.9%.

Regarding `CC(C)(C)c1o[nH]c(=O)c1CC(N)C(=O)O` (centres unmarked) [ATPA], the “% 25 nM CA200645 binding” value is given as 96.6 ± 6.2%. In the case of `CC(C)(C)c1onc(OCP(=O)(O)O)c1CC(N)C(=O)O` (centres unmarked) [ATPO], the “% 25 nM CA200645 binding” value was determined as 98.4 ± 3.3%. As for `CC(=O)c1ccc2c(c1)N(CCCN(C)C)c1ccccc1S2` [Acepromazine maleate], the “% 25 nM CA200645 binding” value turned out to be 90.7 ± 4.5%. Consider `CC(N)=O` [Acetamide], for which the “% 25 nM CA200645 binding” value is 96.1 ± 7.6%. On the same count and under the same terms, in the case of `CC(=O)Nc1nnc(S(N)(=O)=O)s1` [Acetazolamide] it was 92.4 ± 4.0%; in that of `CC(=O)c1ccc(S(=O)(=O)NC(=O)NC2CCCCC2)cc1` [Acetohexamide], 101.4 ± 13.1%; in that of `CC(=O)OC(C)C[N+](C)(C)C.[Cl-]` (stereo not drawn) [Acetyl-beta-methylcholine chloride], 91.4 ± 19.2%. In the case of `CC(=O)Oc1ccccc1C(=O)O` [Acetylsalicylic acid], the “% 25 nM CA200645 binding” value is 102.5 ± 9.1%. In the case of `CC(=O)SCC[N+](C)(C)C.[Cl-]` [Acetylthiocholine chloride], the “% 25 nM CA200645 binding” value came out at 95.7 ± 4.8%. For `CCN1C[C@]2(COC)[C@H](O)C[C@H](OC)[C@@]34[C@@H]5C[C@@]6(O)[C@H](OC(=O)c7ccccc7)[C@@H]5[C@@](OC(C)=O)([C@@H]([C@H](OC)[C@H]23)[C@@H]14)[C@@H](O)[C@@H]6OC` [Aconitine], the “% 25 nM CA200645 binding” value was found to be 95.2 ± 4.4%.

Take `Nc1nc2c(ncn2COCCO)c(=O)[nH]1` [Acyclovir]: the “% 25 nM CA200645 binding” value is 99.9 ±13.7%. Same read-out and setting: for `NCCCCN=C(N)N` [Agmatine sulfate] the value was 97.6 ± 11.6%; for `CC(N)C(=O)OC(C)(C)Cc1ccc(Cl)cc1` (centres unmarked) [Alaproclate hydrochloride], 104.8 ± 8.1%.

Still in this assay, the particulars now being: % of 25 nM CA200645 binding in the presence of 10 μM compound, LOPAC full screen, A3AR CHO cells.
As to `CNC(=O)[C@H]1O[C@@H](n2cnc3c(NCc4ccc(N)cc4)ncnc32)[C@H](O)[C@@H]1O` [AB-MECA, reference compound], the “% Total CA200645 binding” value worked out at 49.5 ± 5.8%. Same read-out and setting: for `Nc1ccc(CCNc2ncnc3c2ncn3[C@@H]2O[C@H](CO)[C@@H](O)[C@H]2O)cc1` [APNEA, reference compound] the value was 41.0 ± 7.2%.

Still in this assay, the particulars now being: % of control wells (1% DMSO and 25 nM CA200645); compounds at 10 µM; whole live cells expressing the A3AR; mean ± SD, three experiments in duplicate.
Consider `CC1=C(C)C(=O)C(CCCCC#CCCCC#CCO)=C(C)C1=O` [AA-861], for which the “% 25 nM CA200645 binding” value stood at 69.6 ± 8.4%.
